# “Also recorded” adds a separate entry of the source.
# Experiments:
# [1] = tested on: mouse anti-HPV16 E7 mAb ED17; test: Dot immunoassay with anti-HPV16 E7 mAb ED17; type: binding; settings: for Binding to mAb ED17 in dot immunoassay: 15-mer peptide spotted on membrane, primary antibody 1:500; for Linear determinant recognized by mAb ED17 (epitope mapping): dot immunoassays using 6-mer peptides offset by one residue
# Experimental: The peptides corresponding to the three peptide sequences were synthetized and used as antigens in dot immunoassay experiments with MAb-ED17, a mouse monoclonal IgG, raised to the full length E7 oncoprotein. Peptide purity was controlled by analytical HPLC, and the molecular mass of purified peptides confirmed by fast atomic bombardment mass spectrometry. Peptides were dissolved in 0.9% NaCl, aliquoted and stored at −20° C.
# Nitrocellulose membranes (Nytran […] pore size, Schleicher & Schüll) were pretreated for 1 min in 4% BSA (bovine serum albumin)/10 mM Tris-HCl, pH 7.5/150 mM NaCl, followed by 10 min activation with 2.5% glutaraldehyde. Peptides (5 Φg) were spotted on the activated membrane, left to dry for 1 hr at room temperature, and probed in phosphate-buffered saline (PBS) containing 4% BSA, 0.1% (v/v) Tween 20, and the primary antibody (1:500). Primary antibody was mouse anti-HPV16 E7 monoclonal IgG1 raised to amino acids 1-98 representing full length E7 (ED17, cat # sc-6981, Santa Cruz Biotechnology, Inc., Santa Cruz, Calif.). Following a 1 h incubation at room temperature, the membrane was washed three times for 10 mins with PBS containing 4% BSA, 0.1% Tween-20 and incubated with horseradish peroxidase-conjugated affinity-purified sheep anti-mouse IgG for 1 h (1:2500; Santa Cruz Biotechnology). Membrane was washed in PBS (4 times for 5 mins), and immunoblots were developed using the enhanced chemiluminescence detection assay (ECL Western blotting analysis system, Amersham Pharmacia Biotech, Milan, Italy).
# The identification of the H2-E^k presented HPV 16 E7 epitope was further ananyzed by epitope mapping. Dot immunoassays by using 6-mer peptides offset by one amino acid residue confirmed that the anti-E7 mAb recognized the linear determinant HPV 16 E52-61 YNIVTFCCKC (SEQ ID NO:108) present in the 15-mer peptide RAHYNIVTFCCKCDS (SEQ ID NO:61), having the highest binding potential to the mouse MHC II molecule, and a low degree of similarity to host proteins.
# Four peptides were analyzed for epitopic determinants in dot immunoassay tests: E725-39 YEQLNDSSEEEDEID (control; SEQ ID NO:76); E784-98 MGTLGIVCPICSQKP (SEQ ID NO:71); E72-16 HGDTPTLHEYMLDLQ (SEQ ID No:69); E749-63 RAHYNIVTFCCKCDS (SEQ ID NO:61); and E732-46 SEEEDEIDGPAGQAE (SEQ ID NO:39). […] As expected, high similarity peptide E732-46 SEEEDEIDGPAGQAE (SEQ ID NO:39) was not reactive (FIG. 1, peptide 5).
# E749-63 RAHYNIVTFCCKCDS (SEQ ID NO:61) was further analyzed by epitope mapping.
# [2] = tested on: HPV-transformed tumor cells; settings: mice; cited from earlier work
# [3] = tested on: MAb-ED17; test: NMR spectra confirming epitope screening; type: binding, mouse
# Source text: To confirm the epitope screening results, NMR spectra were obtained that confirmed the high affinity of MAb-ED17 towards the predicted epitopic peptide RAHYNIVTFCCKCDS (SEQ ID NO:61).
Substance,Binding to mAb ED17 in dot immunoassay [1],other results
YEQLNDSSEEEDEID (listed as Human papillomavirus),no binding,–
"HPV E744-62 peptide: polypeptide comprising amino acids 44-62 of HPV E7 protein (QAEPDRAHYNIVTFCCKCD; UniProt P03129 44-62, looked up, fragment)",–,Prevention of outgrowth of HPV-transformed tumor cells [2]: effective for preventing outgrowth
MGTLGIVCPICSQKP (listed as Human papillomavirus),not recognized,–
AHYNIVTFCCKC,–,Linear determinant recognized by mAb ED17 (epitope mapping) [1]: recognized
YNIVTFCCKC (listed as Human papillomavirus),–,Linear determinant recognized by mAb ED17 (epitope mapping) [1]: recognized
HGDTPTLHEYMLDLQ (listed as Human papillomavirus),not recognized; also recorded: No immune reaction,–
RAHYNIVTFCCKCDS (listed as Human papillomavirus),Significant binding; also recorded: significant signal,Affinity of MAb-ED17 towards peptide by NMR spectra [3]: high affinity
SEEEDEIDGPAGQAE (listed as Human papillomavirus),not reactive,–

# Source: patent US20070111261A1, “Antigens” (priority 2001, published 2007)
